Test system: not listed separately
Assay: Cytotoxicity against human HCT116-p53-null cells assessed as cell growth inhibition incubated for 72 hrs by MTT assay
Format: functional, cell-based
Conditions: not given

SMILES | IC50
O=C1C2=C(C(=O)c3c(O)cccc31)C(c1cc(Cl)ccc1O)c1sc(=O)[nH]c1S2 (stereo unspecified) | 3.86 µM
O=C1C2=C(C(=O)c3c(O)cccc31)C(CCc1ccccc1)c1sc(=O)[nH]c1S2 (stereo unspecified) | > 50 µM

Test system: not listed separately
Assay: Cytotoxicity against mouse NIH3T3 cells assessed as cell growth inhibition incubated for 72 hrs by MTT assay
Format: toxicity, cell-based
Conditions: not given

SMILES | IC50 at 72 h
O=C1C2=C(C(=O)c3c(O)cccc31)C(c1cc(Cl)ccc1O)c1sc(=O)[nH]c1S2 (stereo unspecified) | 37 µM

Test system: KB 3-1
Assay: Cytotoxicity against human KB 3-1 cells assessed as cell growth inhibition incubated for 72 hrs by MTT assay
Format: functional, cell-based
Conditions: KB 3-1, 72 h

SMILES | IC50
O=C1C2=C(C(=O)c3c(O)cccc31)C(c1cc(Cl)ccc1O)c1sc(=O)[nH]c1S2 (stereo unspecified) | 3.64 µM
O=C1C2=C(C(=O)c3c(O)cccc31)C(CCc1ccccc1)c1sc(=O)[nH]c1S2 (stereo unspecified) | > 50 µM

Test system: not listed separately
Assay: Cytotoxicity against mouse J774.2 cells assessed as cell growth inhibition incubated for 72 hrs by MTT assay
Format: toxicity, cell-based
Conditions: not given

SMILES | IC50 at 72 h
O=C1C2=C(C(=O)c3c(O)cccc31)C(c1cc(Cl)ccc1O)c1sc(=O)[nH]c1S2 (stereo unspecified) | 5.25 µM
O=C1C2=C(C(=O)c3c(O)cccc31)C(CCc1ccccc1)c1sc(=O)[nH]c1S2 (stereo unspecified) | > 50 µM

Test system: not listed separately
Assay: Cytotoxicity against human HaCaT cells assessed as cell growth inhibition incubated for 72 hrs by MTT assay
Format: toxicity, cell-based
Conditions: HaCaT cells

SMILES | IC50 at 72 h
O=C1C2=C(C(=O)c3c(O)cccc31)C(c1cc(Cl)ccc1O)c1sc(=O)[nH]c1S2 (stereo unspecified) | > 50 µM

Test system: MCF7
Assay: Cytotoxicity against human MCF7 cells assessed as cell growth inhibition incubated for 72 hrs by MTT assay
Format: functional, cell-based
Conditions: MCF7, 72 h

SMILES | IC50
O=C1C2=C(C(=O)c3c(O)cccc31)C(c1cc(Cl)ccc1O)c1sc(=O)[nH]c1S2 (stereo unspecified) | 9.34 µM
O=C1C2=C(C(=O)c3c(O)cccc31)C(CCc1ccccc1)c1sc(=O)[nH]c1S2 (stereo unspecified) | > 50 µM

Test system: HCT-116
Assay: Cytotoxicity against human HCT-116 cells assessed as cell growth inhibition incubated for 72 hrs by MTT assay
Format: functional, cell-based
Conditions: HCT-116, 72 h

SMILES | IC50
O=C1C2=C(C(=O)c3c(O)cccc31)C(c1cc(Cl)ccc1O)c1sc(=O)[nH]c1S2 (stereo unspecified) | 0.75 µM
O=C1C2=C(C(=O)c3c(O)cccc31)C(CCc1ccccc1)c1sc(=O)[nH]c1S2 (stereo unspecified) | > 50 µM

Test system: K562
Assay: Cytotoxicity against human K562 cells assessed as cell growth inhibition incubated for 72 hrs by MTT assay
Format: functional, cell-based
Conditions: K562, 72 h

SMILES | IC50
O=C1C2=C(C(=O)c3c(O)cccc31)C(c1cc(Cl)ccc1O)c1sc(=O)[nH]c1S2 (stereo unspecified) | 11.8 µM
O=C1C2=C(C(=O)c3c(O)cccc31)C(CCc1ccccc1)c1sc(=O)[nH]c1S2 (stereo unspecified) | > 50 µM

Test system: Salmon testes DNA
Assay: Displacement of methyl green from salmon sperm DNA assessed as DNA intercalation at 10 uM incubated for 24 hrs by fluorescence plate reader method relative to control
Format: nucleic-acid assay
Conditions: Salmo salar

Activity | SMILES
29.5% | O=C1C2=C(C(=O)c3c(O)cccc31)C(c1cc(Cl)ccc1O)c1sc(=O)[nH]c1S2 (stereo unspecified)
11.8% | O=C1C2=C(C(=O)c3c(O)cccc31)C(CCc1ccccc1)c1sc(=O)[nH]c1S2 (stereo unspecified)
